# In ChEMBL document CHEMBL1149954, “Synthesis of methyl -sialosides N-substituted with large alkanoyl groups, and investigation of their inhibition of agglutination of erythrocytes by influenza A virus” (Bioorg Med Chem Lett, 1993):
# How the values were obtained:
# Gallus gallus = species on record: Gallus gallus; test: Compound was tested for its ability to displace a fluorescent ligand from the active site of bromelaine-cleaved hemagglutininin (BHA) at concentrations above 5 mM; no displacement was observed
# [1] = Compound was tested for the inhibition of hemagglutinination when incorporated into liposomes (Hemagglutinination inhibition (HAI) assay); no inhibition took place
# [2] = Compound was tested for its ability to displace a fluorescent ligand from the active site of bromelaine-cleaved hemagglutininin (BHA); set-up: species or system Gallus gallus
structure (smiles),measurement,setting,value
CCCCCCCC(=O)NC1C(O)CC(OC)(C(=O)O)OC1[C@H](O)[C@H](O)CO (stereo partly drawn),Binding affinity,Gallus gallus,no displacement was observed
CCCCCCCCCCCCCC(=O)NC1C(O)CC(OC)(C(=O)O)OC1[C@H](O)[C@H](O)CO (stereo partly drawn),Ki,[1],> 1 mM
COC(=O)C1(OC)CC(O)C(NC(C)=O)C([C@H](O)[C@H](O)CO)O1 (stereo partly drawn),Kd,[2],2.8 mM
